Results taken from patent publication US8278333B2, “Crystals of benzoxadiazole derivative” (Astellas Pharma Inc., priority 2006, dated 2012).
“Also recorded” adds a separate entry of the source.

Assays:
[1] = Hygroscopicity test (VTI SGA-100, 25° C., 5 to 95% relative humidity); format: physicochemical; settings: for hygroscopicity (in words): 5 to 95% relative humidity
Method: The measurement was carried out using “DVS” or “SGA-100”, under the conditions of temperature: 25° C., measurement range: 5 to 95% relative humidity, and measurement interval: 5% relative humidity.
For the measurement of hygroscopicity, “VTI SGA-100” was used under the conditions of temperature: 25° C., measurement range: 5 to 95% relative humidity, and measurement interval: 5% relative humidity.

[2] = Photo stability test (impurity by HPLC after 1.2 million lux-hours); format: physicochemical; settings: after preservation under 1.2 million lux-hours of integrated luminance, 25° C.
Method: The amount of impurity was measured through HPLC using a preserved sample, under 1.2 million lux-hours (temperature: 25° C.) of integrated luminance, using a light stability testing device LTL-200D3J-15.
The amount of impurity was measured through HPLC using a preserved sample, under 1.2 million lux-hours (temperature: 25° C.) of integrated luminance, using a light stability testing device LTL-200D3J-15. • HPLC Conditions • Device: LC1100 (LC-5) manufactured by Agilent • Mobile phase: A: 0.01 mol/L, NaClO4 buffer (pH 2.5), B: MeCN • Flow rate: 0.2 mL/min • Column: Inertsil ODS-3 3 um (2.1 mm×100 mm) • Column temperature: 40° C. • Gradient condition: Bconc. 20 to 90% (0 to 18 min), 90% (18 to 23 min), 20% (23.1 to 33 min) • Injection volume: 1 μL • Autosampler temperature: 5° C. • Detection wavelength: 254 nm

Structure (SMILES)	hygroscopicity (in words) [1]	Impurity Increase Amount (%) [2]	Impurity Increase Amount (%) ([2]; listed as α-form Crystal)	Impurity Increase Amount (%) ([2]; listed as β-form Crystal)	Impurity Increase Amount (%) ([2]; listed as γ-form Crystal)	relative humidity from which a drastic increase in weight is shown [1]	relative humidity from which hygroscopicity gradually starts [1]	moisture retained ([1]; at a relative humidity of about 95%)	Impurity Increase Amount (%) ([2]; listed as δ-form Crystal)
CC(C)c1nnc(-c2ccc(-c3ccccc3)nc2)n1-c1cccc2nonc12 [α-form crystal, 4-[3-isopropyl-5-(6-phenyl-3-pyridyl)-4H-1,2,4-triazol-4-yl]-2,1,3-benzoxadiazole]	less than that of the known δ-form crystal; also recorded: relatively low hygroscopicity as compared to the known δ-form crystal	0.0%	0.0%	–	–	–	–	–	–
CC(C)c1nnc(-c2ccc(-c3ccccc3)nc2)n1-c1cccc2nonc12 [β-form crystal, 4-[3-isopropyl-5-(6-phenyl-3-pyridyl)-4H-1,2,4-triazol-4-yl]-2,1,3-benzoxadiazole]	no hygroscopicity	0.0%	–	0.0%	–	–	–	–	–
CC(C)c1nnc(-c2ccc(-c3ccccc3)nc2)n1-c1cccc2nonc12 [γ-form crystal, 4-[3-isopropyl-5-(6-phenyl-3-pyridyl)-1,2,4-triazol-4-yl]-2,1,3-benzoxadiazole]	no hygroscopicity	0.0%	–	–	0.0%	–	–	–	–
CC(C)c1nnc(-c2ccc(-c3ccccc3)nc2)n1-c1cccc2nonc12 [δ-form crystal, 4-[3-isopropyl-5-(6-phenyl-3-pyridyl)-4H-1,2,4-triazol-4-yl]-2,1,3-benzoxadiazole, reference compound]	–	1.0%	–	–	–	about 80%	about 50%	approximately 2%	1.0%
